The supplement of paper PMC10307832

Key:
Experiment in all cases: relative viability (nuclei count vs DMSO), 5 days (fraction); higher = more cells survive
[1] = compound: COc1cc2c(Oc3ccc4[nH]c(C)cc4c3F)ncnc2cc1OCCCN1CCCC1 [Cediranib] + CS(=O)(=O)N1CCN(Cc2cc3nc(-c4cccc5[nH]ncc45)nc(N4CCOCC4)c3s2)CC1 [Pictilisib] (partner 1 µM)
Procedure, shortened: (§1)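 Lung cancer cell lines in 1536-well plates were dosed by pin tool the day after seeding, either with one drug alone or with a fixed anchor-drug dose plus five library-drug doses (not always all listed) in √10 steps. After 5 days, cells were fixed and their nuclei stained in one step (final 0.05% Triton X-100, 1% formaldehyde, 1 ug/ml Hoechst), then counted on 4× images. Relative viability is the nuclei count in treated wells divided by that in vehicle wells. Values are medians of duplicate plates.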

[2] = compound: Nc1ncn([C@H]2C[C@H](O)[C@@H](CO)O2)c(=O)n1 [Decitabine] + COc1cccc2cc(-c3nc([C@H]4CC[C@H](C(=O)O)CC4)n4ncnc(N)c34)[nH]c12 [OSI-027] (partner 0.5 µM)
Procedure, shortened: as §1

[3] = compound: Nc1ncn([C@H]2C[C@H](O)[C@@H](CO)O2)c(=O)n1 [Decitabine] + CS(=O)(=O)N1CCN(Cc2cc3nc(-c4cccc5[nH]ncc45)nc(N4CCOCC4)c3s2)CC1 [Pictilisib] (partner 1 µM)
Procedure, shortened: as §1

[4] = compound: Nc1ncn([C@H]2C[C@H](O)[C@@H](CO)O2)c(=O)n1 [Decitabine] + N=C(N)NC(=N)NCCc1ccccc1 [Phenformin] (partner 250 µM)
Procedure, shortened: as §1

Cell Line	relative viability ([1]; first compound 0.04 µM)	relative viability ([1]; first compound 0.4 µM)	relative viability ([1]; first compound 1.265 µM)	relative viability ([1]; first compound 4 µM)	relative viability ([2]; first compound 0.04 µM)	relative viability ([2]; first compound 0.1265 µM)	relative viability ([2]; first compound 0.4 µM)	relative viability ([2]; first compound 1.265 µM)	relative viability ([2]; first compound 4 µM)	relative viability ([3]; first compound 0.04 µM)	relative viability ([3]; first compound 0.1265 µM)	relative viability ([3]; first compound 0.4 µM)	relative viability ([3]; first compound 1.265 µM)	relative viability ([3]; first compound 4 µM)	relative viability ([4]; first compound 0.04 µM)	relative viability ([4]; first compound 0.1265 µM)	relative viability ([4]; first compound 0.4 µM)	relative viability ([4]; first compound 1.265 µM)	relative viability ([4]; first compound 4 µM)	relative viability ([1]; first compound 0.1265 µM)
NCI-H1395	0.58	0.593	0.557	0.591	0.483	0.529	0.516	0.455	0.492	0.57	0.579	0.522	0.417	0.458	0.398	0.407	0.46	0.411	0.399	
NCI-H1437	0.484	0.442	0.228	0.499	0.717	0.732	0.495	0.382	0.3	0.455	0.408	0.287	0.172	0.166	0.29	0.311	0.209	0.233	0.26	0.413
NCI-H1563	0.727	0.711	0.66	0.595	0.791	0.811	0.767	0.774	0.76	0.682	0.63	0.779	0.693	0.635	0.631	0.75	0.764	0.658	0.74	0.576
NCI-H1650	0.61	0.494	0.468	0.383	0.422	0.495	0.321	0.285	0.341	0.445	0.595	0.272	0.47	0.399	0.309	0.386	0.303	0.246	0.361	0.234
NCI-H1651	0.666	0.533	0.458	0.445	0.586	0.842	0.777	0.573	0.478	0.481	0.598	0.624	0.503	0.434	0.331	0.345	0.383	0.287	0.318	0.77
NCI-H1666	0.383	0.422	0.5	0.431	0.785	0.82	0.742	0.595	0.676	0.458	0.478	0.387	0.319	0.372	0.617	0.568	0.522	0.506	0.593	0.475
NCI-H1734	0.457	0.54	0.365	0.47	0.506	0.554	0.578	0.368	0.266	0.442	0.453	0.443	0.342	0.312	0.348	0.38	0.382	0.276	0.274	0.541
NCI-H1755	0.329	0.415	0.392	0.396	0.642	0.669	0.534	0.571	0.52	0.385	0.411	0.291	0.365	0.343	0.625	0.629	0.43	0.442	0.465	0.349
NCI-H1792	0.305	0.3	0.312	0.291	0.74	0.727	0.712	0.539	0.505	0.303	0.243	0.34	0.235	0.197	0.445	0.275	0.707	0.262	0.175	0.33
NCI-H1793	0.404	0.345		0.299	0.204	0.277	0.289	0.277	0.233	0.308	0.351	0.245	0.302	0.224	0.384	0.411	0.336	0.305	0.244	0.294
NCI-H1915	0.874	0.87	0.837	1.04	0.447	0.429	0.29	0.312	0.263	0.814	0.662	0.387	0.295	0.304	0.291	0.294	0.274	0.242	0.26	0.722
NCI-H1944	0.33	0.328	0.297	0.328	0.372	0.424	0.353	0.329	0.354	0.353	0.424	0.369	0.319	0.299	0.191	0.21	0.227	0.166	0.199	0.494
NCI-H1975	0.316	0.275	0.239	0.29	0.516	0.378	0.32	0.277	0.256	0.293	0.254	0.226	0.238	0.218	0.281	0.27	0.214	0.229	0.197	0.466
NCI-H1993	0.883	0.719	0.805	0.809	0.593	0.599	0.519	0.514	0.548	0.866	0.973	0.788	0.9	0.725	0.558	0.494	0.507	0.504	0.478	0.806
NCI-H2009	0.769	0.644	0.639	0.822	0.518	0.437	0.336	0.296	0.25	0.773	0.672	0.351	0.386	0.245	0.433	0.4	0.333	0.282	0.286	0.325
NCI-H2023	0.269	0.226	0.193	0.236	0.275	0.29	0.26	0.159	0.15	0.244	0.252	0.174	0.142	0.143	0.31	0.346	0.222	0.163	0.161	0.101
